Reference: publication PMC12517401, “Design, synthesis, and antiproliferative activity of new 2-amino-pyrano[3,2-c]quinoline-3-carbonitriles as potential EGFR, BRAF^V600E, and HER-2 inhibitors” (RSC Advances, 2025)

Key:
BRAF^V600E = BRAF^V600E (Mus musculus, UniProt P28028, V585E); test: BRAF^V600E inhibitory assay
lung cancer (A-549) = test: Antiproliferative assay, A-549; assay type: cell-based; settings: Homo sapiens, A549; A-549 lung cancer cell line; read-out: Antiproliferative activity IC50 ± SEM (nM) A-549
Protocol: (§1) 4.2.2. Assay for antiproliferative effect
(§2) To explore the antiproliferative potential of compounds propidium iodide fluorescence assay was performed using different cell lines such as Panc-1 (pancreas cancer cell line), MCF-7 (breast cancer cell line), HT-29 (colon cancer cell line) and A-549 (epithelial cancer cell line), respectively. To calculate the total nuclear DNA, a fluorescent dye (propidium iodide, PI) is used which can attach to the DNA, thus offering a quick and precise technique. PI cannot pass through the cell membrane and its signal intensity can be considered as directly proportional to quantity of cellular DNA. Cells whose cell membranes are damaged or have changed permeability are counted as dead ones. The assay was performed by seeding the cells of different cell lines at a density of 3000-7500 cells/well (in 200μl medium) in culture plates followed by incubation for 24h at 37 °C in humidified 5%CO2/95% air atmospheric conditions. The medium was removed; the compounds were added to the plates at 10 μM concentrations (in 0.1% DMSO) in triplicates, followed by incubation for 48h. DMSO (0.1%) was used as control. After incubation, medium was removed followed by the addition of PI (25 μl, 50μg/mL in water/medium) to each well of the plates. At -80 °C, the plates were allowed to freeze for 24 h, followed by thawing at 25 °C. A fluorometer (Polar-Star BMG Tech) was used to record the readings at excitation and emission wavelengths of 530 and 620 nm for each well. The percentage cytotoxicity of compounds was calculated using the following formula:
(§3) Where ATC= Absorbance of treated cells and AC= Absorbance of control. Erlotinib was used as positive control in the assay. […]
(1 picture or pasted object on this page, not shown here)

[1] = test system: four human cancer cell lines (A-549, MCF-7, Panc-1, HT-29); test: Antiproliferative assay, average over four cancer cell lines (GI50); assay type: cell-based; settings: for GI50: Homo sapiens, GI50 = mean IC50 against the four cancer cell lines; for Times less efficient than 5a (GI50): ratio of GI50 versus 5a; for Potency reduction fold compared to 5h (GI50): ratio of GI50 versus 5h
Protocol: as §1
To explore the antiproliferative potential of compounds propidium iodide fluorescence assay was performed using different cell lines such as Panc-1 (pancreas cancer cell line), MCF-7 (breast cancer […]
calculate the total nuclear DNA, a fluorescent dye (propidium iodide, PI) is used which can attach to the DNA, thus offering a quick and precise technique. PI cannot pass through the cell membrane and its signal intensity can be considered as directly proportional to quantity of cellular DNA. Cells whose cell membranes are damaged or have changed permeability are counted as dead ones. The assay was performed by seeding the cells of different cell lines at a density of 3000-7500 cells/well (in 200μl […]
atmospheric conditions. The medium was removed; the compounds were added to the plates at 10 μM concentrations (in 0.1% DMSO) in triplicates, followed by incubation for 48h. DMSO (0.1%) was used as control. After incubation, medium was removed followed by the addition of PI (25 μl, 50μg/mL in water/medium) to each well of the plates. At -80 °C, the plates were allowed to freeze for 24 h, followed by thawing at 25 °C. A fluorometer (Polar-Star BMG Tech) was used to record the readings at excitation and emission wavelengths of 530 and 620 nm for each well. The percentage cytotoxicity of compounds was calculated using the following formula:
Where ATC= Absorbance of treated cells and AC= Absorbance of control. […]
positive control in the assay. […]

colon cancer (HT-29) = test: Antiproliferative assay, HT-29; assay type: cell-based; settings: Homo sapiens; HT-29 colon cancer cell line; read-out: Antiproliferative activity IC50 ± SEM (nM) HT-29
Protocol: as §1, §2, §3

[2] = test system: pancreatic cancer (Panc-1); test: Antiproliferative assay, Panc-1; assay type: cell-based; settings: Homo sapiens; Panc-1 pancreatic cancer cell line; read-out: Antiproliferative activity IC50 ± SEM (nM) Panc-1
Protocol: as §1, §2, §3

EGFR = EGFR (Homo sapiens, UniProt P00533); test: EGFR-TK inhibitory assay
Protocol: Baculoviral expression vectors including pBlueBacHis2B and pFASTBacHTc were used separately
upstream to the EGFR sequence comprised a sequence that encoded (His)6. Sf-9 cells were infected for 72h for protein expression. The pellets of Sf-9 cells were solubilized in a buffer containing sodium vanadate (100 μM), aprotinin (10 μg/mL), triton (1%), HEPES buffer(50mM), ammonium molybdate (10 μM), benzamidine HCl (16 μg/mL), NaCl (10 mM),leupeptin (10 μg/mL) and pepstatin (10 μg/mL) at 0°C for 20 min at pH 7.4, followed by centrifugation for 20 min. To eliminate the nonspecifically bound material, a Ni-NTA super flow packed column was used to pass through and wash the crude extract supernatant first with 10mM and then with 100 mM imidazole. Histidine-linked proteins were first eluted with 250 and then with 500 mM imidazole subsequent to dialysis against NaCl (50 mM), HEPES (20 mM), glycerol (10%) and 1 μg/mL each of aprotinin, leupeptin and pepstatin for 120 min. The purification was performed either at 4 °C or on ice. To record autophosphorylation level, EGFR kinase assay was carried out on the basis of DELFIA/Time-Resolved Fluorometry. The compounds were first dissolved in DMSO absolute, subsequent to dilution to appropriate concentration using HEPES (25 mM) at pH 7.4. Each compound (10 μL) was incubated with recombinant enzyme (10 μL, 5 ng for EGFR, 1:80 dilution in 100 mM HEPES) for 10 min at 25 °C, subsequent to the addition of 5X buffer (10 μL, containing 2 mM MnCl2, 100 μM Na3VO4, 20 mM HEPES and 1 mM DTT) and ATP-MgCl2 (20 μL, containing 0.1 mM ATP and 50 mM MgCl2) and incubation for 1h. The negative and positive controls were included in each plate by the incubation of enzyme either with or without ATP-MgCl2. The liquid was removed after incubation and the plates were washed thrice using a wash buffer. The Europium-tagged antiphosphotyrosine antibody (75 μL, 400 ng) was added to each well followed by incubation of 1h
and then washing of the plates using buffer. The enhancement solution was added to each well and
autophosphorylation percentage inhibition by compounds was calculated using the following
calculated. The majority of signals detected by antiphosphotyrosine antibody were from EGFR because the enzyme preparation contained low impurities.

breast cancer (MCF-7) = test: Antiproliferative assay, MCF-7; assay type: cell-based, human; settings: for IC50: Homo sapiens, MCF7, MCF-7 breast cancer cell line, read-out: Antiproliferative activity IC50 ± SEM (nM) MCF-7
Protocol: as §1, §2, §3

HER-2 = biological target: T1, HER-2 (Homo sapiens, UniProt P04626); test: HER-2 inhibitory assay (ADP-Glo kinase assay); assay type: biochemical; settings: read-out: HER-2 inhibition IC50 ± SEM
T1 construct: purchased Abcam ab60866
Protocol: The results are presented as IC50 values. Lapatinib served as the reference medication. Appendix A describes more experimental details.
Lapatinib functioned as the reference drug. […]
4.2.5. HER-2 inhibitory assay
The ADP-Glo™ Kinase Assay was used for kinase activity detection, related kinases information:
HER-2 (ab60866, Abcam), with a concentration of 100 ng/mL. Target compounds were dissolved in DMSO to obtain drug solutions with different concentrations, and the compound concentrations in the final reaction system (100 μL) were 1 nM, 20 nM, 40 nM, 80 nM, and 100 nM, respectively. 10μL of the solution containing compounds was transferred to a 96-well plate, then added 40 μL of 1 × kinase buffer (50 mM HEPES, pH 7.5) to each well, and mixed the mixture in the 96-well plate on a shaker for 10 min. Next, added 25 μL of ADP-Glo™ reagent to the above wells, mixed and incubated for another 40 min. Distributed 10 μL kinase detection reagent to the reaction and incubated for 30 min. Finally, the full-wavelength microplate reader was used to record the OD value.
4.3. Statistical analysis
Computerized Prism 5 program was used to statistically analyzed data using one-way ANOVA test followed by Tukey’s as post ANOVA for multiple comparison at P ≤.05. Data were presented as […]

[3] = Cell viability assay (MTT) on MCF-10A normal cell line; assay type: cell-based; settings: human, MCF-10A mammary gland epithelial normal cells, MCF-10A cells, 50 μM of each compound, four days of incubation
Protocol: The human mammary gland epithelial (MCF-10A) normal cell line was used to examine the viability effects of new derivatives 5a–l using the MTT test.[33,34] Refer to Appendix A for more details.
The human mammary gland epithelium (MCF-10A) normal cell line was employed to evaluate the viability effects of novel derivatives 5a–l. The cell viability of 5a–l was assessed via the MTT assay following four days of incubation with 50 μM of each compound on MCF-10A cells.[33,34] […]
4.2. Biological evaluation
4.2.1 Cell Viability assay (MTT assay)
MTT assay was performed to investigate the effect of the synthesized compounds on mammary epithelial cells (MCF-10A). The cells were propagated in medium consisting of Ham's F-12 medium/ Dulbecco's modified Eagle's medium (DMEM) (1:1) supplemented with 10% foetal calf serum, 2 mM glutamine, insulin (10 μg/mL), hydrocortisone (500 ng/mL) and epidermal growth factor (20 ng/mL). Trypsin ethylenediamine tetra acetic acid (EDTA) was used to passage the cells after every 2-3 days. 96-well flat-bottomed cell culture plates were used to seed the cells at a density of 10^4 cells mL-1. The medium was aspirated from all the wells of culture plates after 24 h followed by the addition of synthesized compounds (in 200 μL medium to yield a final concentration of 0.1% (v/v) dimethyl sulfoxide) into individual wells of the plates. Four wells were designated to a single compound. The plates were allowed to incubate at 37°C for 96 h. Afterwards, the medium was aspirated and 3-[4,5-dimethylthiazol-2-yl]-2,5-diphenyltetrazolium bromide (MTT) (0.4 mg/mL) in medium was added to each well and subsequently incubated for 3 h. The medium was aspirated and 150 μL dimethyl sulfoxide (DMSO) was added to each well. The plates were vortexed followed by the measurement of absorbance at 540 nm on a microplate reader. The results were presented as inhibition (%) of proliferation in contrast to controls comprising 0.1% DMSO. […]

T1 sequence (P04626 23-1255): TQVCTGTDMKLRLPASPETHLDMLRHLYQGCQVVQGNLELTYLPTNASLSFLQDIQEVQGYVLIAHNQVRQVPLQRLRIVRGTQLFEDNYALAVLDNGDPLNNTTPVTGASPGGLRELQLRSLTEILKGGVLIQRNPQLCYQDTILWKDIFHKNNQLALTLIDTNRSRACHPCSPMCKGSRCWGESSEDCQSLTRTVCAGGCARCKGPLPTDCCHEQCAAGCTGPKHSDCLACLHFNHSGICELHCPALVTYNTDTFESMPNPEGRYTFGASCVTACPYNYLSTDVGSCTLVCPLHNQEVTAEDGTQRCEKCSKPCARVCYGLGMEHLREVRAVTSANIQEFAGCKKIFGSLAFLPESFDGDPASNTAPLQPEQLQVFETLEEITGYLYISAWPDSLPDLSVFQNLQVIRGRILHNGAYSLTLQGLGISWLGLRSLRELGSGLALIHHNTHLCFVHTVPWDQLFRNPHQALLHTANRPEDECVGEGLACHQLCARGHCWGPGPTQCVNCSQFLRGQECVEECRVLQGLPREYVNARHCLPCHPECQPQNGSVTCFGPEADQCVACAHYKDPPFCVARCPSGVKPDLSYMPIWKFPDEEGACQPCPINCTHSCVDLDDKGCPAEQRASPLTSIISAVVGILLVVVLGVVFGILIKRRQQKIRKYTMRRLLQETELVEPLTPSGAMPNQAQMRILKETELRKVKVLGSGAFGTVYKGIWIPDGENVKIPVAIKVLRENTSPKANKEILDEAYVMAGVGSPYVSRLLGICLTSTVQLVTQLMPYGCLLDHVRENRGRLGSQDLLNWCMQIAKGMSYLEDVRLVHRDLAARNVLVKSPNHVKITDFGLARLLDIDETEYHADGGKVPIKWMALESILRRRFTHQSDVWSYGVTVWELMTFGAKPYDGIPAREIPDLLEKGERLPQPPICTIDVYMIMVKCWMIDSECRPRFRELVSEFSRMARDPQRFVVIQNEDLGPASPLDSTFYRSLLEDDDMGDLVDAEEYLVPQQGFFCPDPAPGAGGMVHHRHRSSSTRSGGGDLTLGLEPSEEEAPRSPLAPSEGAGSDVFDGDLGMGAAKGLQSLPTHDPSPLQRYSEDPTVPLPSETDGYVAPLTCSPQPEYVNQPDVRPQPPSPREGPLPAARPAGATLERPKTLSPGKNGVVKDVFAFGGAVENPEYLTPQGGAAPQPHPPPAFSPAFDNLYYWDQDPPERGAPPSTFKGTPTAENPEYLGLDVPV
Sequence of BRAF^V600E (P28028 whole entry V585E): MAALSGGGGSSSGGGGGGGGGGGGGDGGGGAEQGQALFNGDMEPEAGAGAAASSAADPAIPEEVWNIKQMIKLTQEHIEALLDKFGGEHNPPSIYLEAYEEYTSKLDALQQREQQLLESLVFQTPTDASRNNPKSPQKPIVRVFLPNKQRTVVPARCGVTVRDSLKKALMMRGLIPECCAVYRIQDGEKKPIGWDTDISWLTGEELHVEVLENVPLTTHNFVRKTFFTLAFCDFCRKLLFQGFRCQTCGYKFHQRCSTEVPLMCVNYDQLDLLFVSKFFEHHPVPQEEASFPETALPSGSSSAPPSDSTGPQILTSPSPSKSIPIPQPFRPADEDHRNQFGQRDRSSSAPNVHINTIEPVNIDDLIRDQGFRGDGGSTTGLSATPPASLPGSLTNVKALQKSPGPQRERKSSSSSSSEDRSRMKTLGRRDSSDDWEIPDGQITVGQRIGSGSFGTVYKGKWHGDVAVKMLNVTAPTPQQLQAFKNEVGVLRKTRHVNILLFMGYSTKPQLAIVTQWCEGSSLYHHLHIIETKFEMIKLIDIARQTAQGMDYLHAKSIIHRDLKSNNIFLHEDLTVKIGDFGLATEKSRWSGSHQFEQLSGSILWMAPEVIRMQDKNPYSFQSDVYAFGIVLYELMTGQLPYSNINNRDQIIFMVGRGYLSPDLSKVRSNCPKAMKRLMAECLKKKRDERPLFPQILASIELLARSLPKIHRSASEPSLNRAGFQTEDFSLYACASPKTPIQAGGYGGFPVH
Sequence of EGFR (P00533 669-1210): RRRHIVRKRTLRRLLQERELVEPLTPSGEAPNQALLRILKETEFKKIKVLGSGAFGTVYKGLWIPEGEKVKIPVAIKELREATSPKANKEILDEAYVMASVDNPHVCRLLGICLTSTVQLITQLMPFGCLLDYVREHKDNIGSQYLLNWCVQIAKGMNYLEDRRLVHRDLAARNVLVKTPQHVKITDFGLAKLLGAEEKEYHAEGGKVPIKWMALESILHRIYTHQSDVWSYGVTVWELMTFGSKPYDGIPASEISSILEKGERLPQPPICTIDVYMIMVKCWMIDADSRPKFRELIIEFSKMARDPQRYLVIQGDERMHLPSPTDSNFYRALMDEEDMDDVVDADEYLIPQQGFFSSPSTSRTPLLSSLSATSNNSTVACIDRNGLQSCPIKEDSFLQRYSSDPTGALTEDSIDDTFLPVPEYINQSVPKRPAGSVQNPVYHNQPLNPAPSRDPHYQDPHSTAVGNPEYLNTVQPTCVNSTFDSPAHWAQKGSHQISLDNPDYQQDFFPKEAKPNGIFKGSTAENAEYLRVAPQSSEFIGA

| IC50 (BRAF^V600E) | IC50 (lung cancer (A-549)) | GI50 [1] | IC50 (colon cancer (HT-29)) | IC50 [2] | IC50 (EGFR) | Fold less potent than 5e, EGFR (EGFR; ratio of EGFR IC50 versus 5e) | IC50 (breast cancer (MCF-7)) | IC50 (HER-2) | Times less efficient than 5a (GI50) [1] | Potency reduction fold compared to 5h (GI50) [1] | Times more effective than erlotinib (GI50) ([1]; ratio of GI50 versus erlotinib, four cancer cell lines) | Fold more potency than erlotinib, EGFR (EGFR; ratio of EGFR IC50 versus erlotinib) | SMILES | viability at 4 days, 50 µM [3] | Potency fold greater than erlotinib, MCF-7 (breast cancer (MCF-7); ratio of IC50 versus erlotinib, MCF-7) |
| --- | --- | --- | --- | --- | --- | --- | --- | --- | --- | --- | --- | --- | --- | --- | --- |
|  | 48 ± 4 nM | 48 nM | 50 ± 5 nM | 48 ± 4 nM |  |  | 44 ± 4 nM |  | 1.5 fold |  |  |  | Cc1ccc2[nH]c(=O)c3c(c2c1)OC(N)=C(C#N)C3c1ccccc1 (stereo not drawn) [Compound 5b, 2-Amino-9-methyl-5-oxo-4-phenyl-5,6-dihydro-4H-pyrano[3,2-c]quinoline-3-carbonitrile] | 90% |  |
|  | 66 ± 6 nM | 66 nM | 70 ± 6 nM | 68 ± 6 nM |  |  | 59 ± 5 nM |  | 2.1 fold | 2.5 fold |  |  | COc1ccc2[nH]c(=O)c3c(c2c1)OC(N)=C(C#N)C3c1ccccc1 (stereo not drawn) [Compound 5c, 2-Amino-9-methoxy-5-oxo-4-phenyl-5,6-dihydro-4H-pyrano[3,2-c]quinoline-3-carbonitrile] | 91% |  |
| 83 ± 5 nM | 35 ± 3 nM | 35 nM | 37 ± 3 nM | 36 ± 3 nM | 87 ± 5 nM |  | 31 ± 2 nM | 39 ± 2 nM |  |  |  |  | Cc1ccc2c3c(c(=O)[nH]c2c1)C(c1ccccc1)C(C#N)=C(N)O3 (stereo not drawn) [Compound 5d, 2-Amino-8-methyl-5-oxo-4-phenyl-5,6-dihydro-4H-pyrano[3,2-c]quinoline-3-carbonitrile] | 93% |  |
|  | 54 ± 4 nM | 54 nM | 56 ± 5 nM | 56 ± 5 nM |  |  | 50 ± 4 nM |  |  |  |  |  | COc1ccc(C2C(C#N)=C(N)Oc3c2c(=O)[nH]c2ccccc32)cc1 (stereo not drawn) [Compound 5f, 2-Amino-4-(4-methoxylphenyl)-5-oxo-5,6-dihydro-4H-pyrano[3,2-c]quinoline-3-carbonitrile] | 92% |  |
|  | 60 ± 5 nM | 61 nM | 63 ± 5 nM | 62 ± 5 nM |  |  | 56 ± 5 nM |  |  | 2.3 fold |  |  | COc1ccc2[nH]c(=O)c3c(c2c1)OC(N)=C(C#N)C3c1ccc(Cl)cc1 (stereo not drawn) [Compound 5l, 2-Amino-9-methoxyl-4-(4-chlorophenyl)-5-oxo-5,6-dihydro-4H-pyrano[3,2-c]quinoline-3-carbonitrile] | 92% |  |

Further lines, the compound ahead of its results:

| SMILES | IC50 (BRAF^V600E) | IC50 (lung cancer (A-549)) | GI50 [1] | IC50 (colon cancer (HT-29)) | IC50 [2] | IC50 (EGFR) | Fold less potent than 5e, EGFR (EGFR; ratio of EGFR IC50 versus 5e) | IC50 (breast cancer (MCF-7)) | IC50 (HER-2) | Times less efficient than 5a (GI50) [1] | Potency reduction fold compared to 5h (GI50) [1] | Times more effective than erlotinib (GI50) ([1]; ratio of GI50 versus erlotinib, four cancer cell lines) | Fold more potency than erlotinib, EGFR (EGFR; ratio of EGFR IC50 versus erlotinib) | viability at 4 days, 50 µM [3] | Potency fold greater than erlotinib, MCF-7 (breast cancer (MCF-7); ratio of IC50 versus erlotinib, MCF-7) |
| --- | --- | --- | --- | --- | --- | --- | --- | --- | --- | --- | --- | --- | --- | --- | --- |
| N#CC1=C(N)Oc2c(c(=O)[nH]c3ccccc23)C1c1ccccc1 (stereo not drawn) [Compound 5a, 2-Amino-5-oxo-4-phenyl-5,6-dihydro-4H-pyrano[3,2-c]quinoline-3-carbonitrile] | 79 ± 5 nM | 32 ± 2 nM | 31 nM | 32 ± 2 nM | 32 ± 2 nM | 84 ± 5 nM | 1.2 fold | 27 ± 2 nM | 36 ± 2 nM |  |  |  |  | 92% |  |
| Cn1c(=O)c2c(c3ccccc31)OC(N)=C(C#N)C2c1ccccc1 (stereo not drawn) [Compound 5e, 2-Amino-6-methyl-5-oxo-4-phenyl-5,6-dihydro-4H-pyrano[3,2-c]quinoline-3-carbonitrile] | 62 ± 3 nM | 26 ± 2 nM | 26 nM | 27 ± 2 nM | 28 ± 2 nM | 71 ± 4 nM |  | 24 ± 2 nM | 21 ± 1 nM |  |  | 1.3 fold | 1.2 fold | 90% | 1.7 fold |
| COc1ccc(C2C(C#N)=C(N)Oc3c2c(=O)[nH]c2ccc(C)cc32)cc1 (stereo not drawn) [Compound 5g, 2-Amino-4-(4-methoxylphenyl)-9-methyl-5-oxo-5,6-dihydro-4H-pyrano[3,2-c]quinoline-3-carbonitrile] |  | 71 ± 6 nM | 72 nM | 74 ± 6 nM | 74 ± 6 nM |  |  | 67 ± 6 nM |  |  | 2.6 fold |  |  | 93% |  |
| N#CC1=C(N)Oc2c(c(=O)[nH]c3ccccc23)C1c1ccc(Cl)cc1 (stereo not drawn) [Compound 5j, 2-Amino-4-(4-chlorophenyl)-5-oxo-5,6-dihydro-4H-pyrano[3,2-c]quinoline-3-carbonitrile] |  | 43 ± 4 nM | 43 nM | 46 ± 4 nM | 44 ± 4 nM |  |  | 38 ± 3 nM |  |  |  |  |  | 91% |  |
| Cc1ccc2[nH]c(=O)c3c(c2c1)OC(N)=C(C#N)C3c1ccc(Cl)cc1 (stereo not drawn) [Compound 5k, 2-Amino-9-methyl-4-(4-chlorophenyl)-5-oxo-5,6-dihydro-4H-pyrano[3,2-c]quinoline-3-carbonitrile] |  | 39 ± 3 nM | 39 nM | 42 ± 3 nM | 42 ± 3 nM |  |  | 34 ± 3 nM |  |  |  |  |  | 93% |  |
